Key:
[1] = molecular target: T1, Cdk2(R122C) (C177A) (Homo sapiens, UniProt P24941, C177A/R122C); assay: Kinetic thiol consumption assay with Cdk2 mutant R122C; type: binding; parameters: key to Rate enhancement, Cdk2 R122C: rate constant with Cdk2 ÷ rate constant with model thiol (fold); settings: additional mutation C177A; for Rate constant with Cdk2 R122C: Protein: Cdk2, cysteine position R122C, in h-1
T1 construct: poly-histidine; made in house; host or cells: E. coli
Procedure, shortened: (§1)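 Thiol consumption was monitored kinetically using 5 μM Cdk2 (C177A plus one introduced cysteine) in degassed phosphate buffer at pH 8 with TCEP beads. Plates were kept 1 h at room temperature before fluorescence reading, and rate constants came from exponential decay fitting.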

[2] = Kinetic thiol consumption assay with model thiol glutathione; type: physicochemical; parameters: Rate constant with glutathione (k(GSH)): unit not given here; settings: for Rate constant with glutathione (k(GSH)): 500 μM ligand, 5 μM thiol, phosphate buffer pH 8; for Rate constant with Glutathione: Protein: Glutathione, cysteine position NA, in h-1
Procedure, shortened: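 First, 5 μM glutathione in degassed phosphate buffer (pH 8) receives immobilized TCEP beads (2% v/v). Then acrylamide is added and plates incubate 1 h at room temperature. Finally, fluorescence (380/470 nm) is normalized and fitted to first-order decay for rate constants.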

[3] = molecular target: T2, Cdk2(C177A, F80C) (Homo sapiens, UniProt P24941, C177A/F80C); assay: Kinetic thiol consumption assay with Cdk2 mutant F80C, incl. kobs versus concentration (Kd, k2); type: binding; parameters: key to Rate enhancement, Cdk2 F80C: Cdk2 rate constant divided by model-thiol rate constant; settings: additional mutation C177A; for Rate constant with Cdk2 F80C: Protein: Cdk2, cysteine position F80C, in h^-1
T2 construct: poly-histidine; made in house; host or cells: E. coli
Procedure, shortened: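 His-tagged Cdk2(C177A/F80C) from E. coli or model thiol, 5 μM in degassed phosphate buffer pH 8 with TCEP beads, reacted with acrylamide ligands; fluorescence (ex/em 380/470 nm) normalized to DMSO control and fitted to first-order decay for kobs. Kd and k2 obtained from hyperbolic fit of kobs versus ligand concentration.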

[4] = molecular target: T3, Cdk2(S181C) (C177A) (Homo sapiens, UniProt P24941, C177A/S181C); assay: Kinetic thiol consumption assay with Cdk2 mutant S181C; type: binding; parameters: key to Rate enhancement, Cdk2 S181C: rate constant with Cdk2 ÷ rate constant with model thiol (fold); settings: additional mutation C177A; for Rate constant with Cdk2 S181C: Protein: Cdk2, cysteine position S181C, in h^-1
T3 construct: poly-histidine; made in house; host or cells: E. coli
Procedure, shortened: as §1

[5] = molecular target: T4, Cdk2(H71C) (C177A) (Homo sapiens, UniProt P24941, C177A/H71C); assay: Kinetic thiol consumption assay with Cdk2 mutant H71C; type: binding; parameters: key to Rate enhancement, Cdk2 H71C: rate constant with Cdk2 ÷ rate constant with model thiol (fold); settings: additional mutation C177A; for Rate constant with Cdk2 H71C: Protein: Cdk2, cysteine position H71C, in h^-1
T4 construct: poly-histidine; made in house; host or cells: E. coli
Procedure, shortened: as §1

[6] = molecular target: T5, Cdk2(S276C) (C177A) (Homo sapiens, UniProt P24941, C177A/S276C); assay: Kinetic thiol consumption assay with Cdk2 mutant S276C; type: binding; parameters: key to Rate enhancement, Cdk2 S276C: rate constant with Cdk2 ÷ rate constant with model thiol (fold); settings: additional mutation C177A; for Rate constant with Cdk2 S276C: Protein: Cdk2, cysteine position S276C, in h^-1
T5 construct: poly-histidine; made in house; host or cells: E. coli
Procedure, shortened: as §1

[7] = molecular target: T6, human cyclin-dependent kinase 2 (Cdk2) (Homo sapiens, UniProt P24941); assay: Kinetic thiol consumption assay with wild type Cdk2 (C177); type: binding; parameters: key to Rate enhancement, Cdk2 WT: k(Cdk2) divided by k(model thiol); Rate constant with Cdk2 (k(Cdk2)): unit not given here; settings: for Rate constant with Cdk2 (k(Cdk2)): 500 μM ligand, 5 μM thiol, phosphate buffer pH 8; for Rate enhancement, Cdk2 WT: no additional mutations; for Rate constant with Cdk2 WT: Protein: Cdk2, cysteine position WT, in h^-1; for k(Cdk2)/k(Cdk2_mut) rate enhancement: model thiol Cdk2[C177A, F80C, K278C]; for k(Cdk2)/k(GSH) rate enhancement: model thiol glutathione
T6 construct: poly-histidine; made in house; host or cells: E. coli
Procedure, shortened: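 His-tagged human Cdk2 (single surface cysteine C177), expressed in E. coli, or a model thiol at 5 μM in degassed phosphate buffer pH 8 was pre-treated with immobilized TCEP beads (2% v/v) before acrylamide addition. Fluorescence (ex/em 380/470 nm) was read after 1 h at room temperature, normalized to DMSO/thiol-only control and plotted versus time.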

[8] = molecular target: T7, Cdk2(N272C) (C177A) (Homo sapiens, UniProt P24941, C177A/N272C); assay: Kinetic thiol consumption assay with Cdk2 mutant N272C; type: binding; parameters: key to Rate enhancement, Cdk2 N272: rate constant with Cdk2 ÷ rate constant with model thiol (fold); settings: for Rate enhancement, Cdk2 N272: Cdk2 N272, additional mutation C177A; for Rate constant with Cdk2 N272C: Protein: Cdk2, cysteine position N272C, additional mutation C177A, in h^-1
T7 construct: poly-histidine; made in house; host or cells: E. coli
Procedure, shortened: as §1

[9] = molecular target: T8, Cdk2(T182C) (C177A) (Homo sapiens, UniProt P24941, C177A/T182C); assay: Kinetic thiol consumption assay with Cdk2 mutant T182C; type: binding; parameters: key to Rate enhancement, Cdk2 T182C: rate constant with Cdk2 ÷ rate constant with model thiol (fold); settings: additional mutation C177A; for Rate constant with Cdk2 T182C: Protein: Cdk2, cysteine position T182C, in h^-1
T8 construct: poly-histidine; made in house; host or cells: E. coli
Procedure, shortened: as §1

[10] = molecular target: T9, Cdk2[C177A, F80C, K278C] (Homo sapiens, UniProt P24941, C177A/F80C/K278C); assay: Kinetic thiol consumption assay with mutant Cdk2 as model thiol; type: binding; parameters: unit not given here; settings: 500 μM ligand, 5 μM thiol, phosphate buffer pH 8
T9 construct: poly-histidine; made in house; host or cells: E. coli
Procedure, shortened: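 First-order rate constants were derived by exponential-decay fitting of DMSO/thiol-normalized fluorescence (380/470 nm) over time at room temperature. Thiol was 5 μM E. coli-expressed His-tagged Cdk2 mutant C177A/F80C/K278C in degassed pH 8 phosphate buffer containing 2% v/v TCEP beads.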

Structure (SMILES) | Rate enhancement, Cdk2 R122C [1] | Rate constant with Cdk2 R122C [1] | Rate constant with glutathione (k(GSH)) [2] | Rate constant with Glutathione [2] | Rate enhancement, Cdk2 F80C [3] | Rate enhancement, Cdk2 S181C [4] | Rate constant with Cdk2 S181C [4] | Rate enhancement, Cdk2 H71C [5] | Rate enhancement, Cdk2 S276C [6] | Rate constant with Cdk2 S276C [6] | Rate constant with Cdk2 (k(Cdk2)) [7] | Rate enhancement, Cdk2 WT [7] | Rate constant with Cdk2 WT [7] | k(Cdk2)/k(Cdk2_mut) rate enhancement [7] | k(Cdk2)/k(GSH) rate enhancement [7] | Rate enhancement, Cdk2 N272 [8] | Rate constant with Cdk2 N272C [8] | Rate enhancement, Cdk2 T182C [9] | Rate constant with Cdk2 T182C [9] | Rate constant with Cdk2[C177A, F80C, K278C] (k(Cdk2_mut)) [10] | also measured
C=CC(=O)Nc1[nH]nc(C2CC2)c1-c1ccc2c(c1)OCO2 [CA-041] | 0.003956 | 0.002178 | 0.5441 | 0.5506 | 0 | 0.005756 | 0.003169 | 0.007207 | 0.0064 | 0.003524 | 1.146 | 2.081 | 1.146 | 0.5929 | 2.106 | 0.008585 | 0.004727 | 0.8554 | 0.471 | 1.933 | Rate constant with Cdk2 H71C [5]: 0.003968
C=CC(=O)N1CCCN(Cc2noc(C3CC3)n2)CC1 [CA-079] | 0.4828 | 0.004453 | 0.00593 | 0.009223 | 0.1408 | 4.96 | 0.04575 | 0.2998 | 0.6649 | 0.006132 | 0.00553 | 1.018 | 0.00939 | 2.634 | 0.9328 | 0.4916 | 0.004534 | 0.8366 | 0.007716 | 0.0021 | Rate constant with Cdk2 F80C [3]: 0.001299; Rate constant with Cdk2 H71C [5]: 0.002765
C=CC(=O)N1CC(n2cccn2)C1 [CA-173] | 0.3379 | 0.005288 | 0.01577 | 0.01565 | 0.3401 | 1.349 | 0.02111 | 0.1755 | 1.187 | 0.01857 | 0.00754 | 0.4816 | 0.007537 | 1.495 | 0.4779 | 0.6511 | 0.01019 | 2.778 | 0.04347 | 0.00504 | Rate constant with Cdk2 F80C [3]: 0.005323; Rate constant with Cdk2 H71C [5]: 0.002746
C=CC(=O)N(CCCN1CCOCC1)Cc1ccncc1 [CA-192] | 0.136 | 0.001825 | 0.00676 | 0.01342 | 0.1157 | 0.1475 | 0.00198 | 0.218 | 0.08092 | 0.001086 | 0.00341 | 0.4352 | 0.00584 | 0.7625 | 0.5048 | 0.3716 | 0.004987 | 0.4571 | 0.006134 | 0.00447 | Rate constant with Cdk2 F80C [3]: 0.001553; Rate constant with Cdk2 H71C [5]: 0.002926
C=CC(=O)N1CCN(c2cc(N3CCOCC3)ncn2)CC1 [CA-179] | 0.6453 | 0.004389 | 0.00683 | 0.006802 | 0.3927 | 2.608 | 0.01774 | 1.062 | 1.169 | 0.007953 | 0.0076 | 1.117 | 0.007599 | 1.056 | 1.112 | 0.4 | 0.002721 | 7.042 | 0.0479 | 0.00719 | Rate constant with Cdk2 F80C [3]: 0.002671; Rate constant with Cdk2 H71C [5]: 0.007227
C=CC(=O)N1CCN(Cc2ccc(Cl)cc2)CC1 [EL-1183] | 0.5841 | 0.003828 | 0.00676 | 0.006554 | 2.859 | 0.8531 | 0.005591 | 1.823 | 0.8088 | 0.005301 | 0.00376 | 0.574 | 0.003762 | 0.4353 | 0.5564 | 0.4193 | 0.002748 | 2.26 | 0.01481 | 0.00864 | Rate constant with Cdk2 F80C [3]: 0.01874; Rate constant with Cdk2 H71C [5]: 0.01195
C=CC(=O)N1CCC(c2nnc3n2CCC3)CC1 [CA-106] | 0.2819 | 0.001115 | 0.00227 | 0.003956 | 0 | 1.69 | 0.006686 | 0 | 0.7543 | 0.002984 | 0.00145 | 0.5857 | 0.002317 | 0.9576 | 0.6367 | 3.031 | 0.01199 | 3.971 | 0.01571 | 0.00151 | 
